Source: patent US6001331A, “Method of imaging amyloid deposits” (Warner-Lambert Company, priority 1998, dated 1999)
Like-named read-outs stand apart in the source and are kept apart here.

Legend:
[1] = biological target: T1, βA(1-40) amyloid aggregates (Homo sapiens, UniProt P05067); assay: Competition assay with Thioflavin T (ThT) for binding to β(1-40) amyloid aggregates, fluorescence 96-well plate
T1 construct: lyophilized β(1-40) protein powder (which may be purchased from BACHEM); purchased BACHEM
Source text: Amyloid aggregates containing β(1-40) protein can also be made by methods well known to those skilled in the art. See, for example, Burdick D., Soreghan B., Kwon M., Kosmoski J., Knauer M., Henschen A., Yates J., Cotman C., and Glabe C. Assembly and aggregation properties of synthetic Alzheimer's A4/β amyloid peptide analogs. J. Biol. Chem., 267:546-554 (1992), which is hereby incorporated by reference. Briefly, lyophilized β(1-40) protein powder (which may be purchased from BACHEM) was dissolved at 10 mg/mL in hexafluoro-2-propanol and subsequently diluted to 500 μg/mL in 25 mM sodium phosphate buffer, pH 6 to induce the α-helix to β-sheet transition resulting in aggregate formation.
(§1) The ability of compounds of Formula I to compete with Thioflavin T (ThT) for binding to amyloid aggregates was measured using fluorescence in a 96-well fluorescence plate assay. As a compromise between sensitivity and signal and to facilitate comparisons between different amyloid fibrils, ThT is present at a concentration equal to the Kmapp of the particular amyloid fibril type and fibril concentrations yielding a similar fluorescence intensity are used. Insulin: 0.5 μM ThT, 2 μg per well. β(1-40): 20 μM ThT, 5 μg/well. All solutions are in 25 mM sodium phosphate buffer, pH 6.0, and the assay is performed at room temperature.
(§2) Using a multichannel pipettor, 100 μL of dilutions of the compound to be tested (0.001-30 μM final concentration in 3-fold steps) are placed in the bottom of Corning U-well polystyrene plates (Corning Company, Corning, N.Y.). 50 μL of ThT are then added to each well. The amyloid fibrils are then added to each well in a volume of 100 μL rapidly to mix the well contents. The plates are read within 5 to 30 minutes in a Millipore Cytofluor 2350 96-well fluorescence plate reader using an excitation filter of 440 nm (20 nm bandpass) and an emission filter of 485 nm (20 nm bandpass). ThT dye blanks were used to correct for the minimal fluorescence background which are subtracted from all data.
(§3) Results are expressed as % maximal fluorescence (no competing compound). […]

[2] = biological target: Insulin amyloid aggregates; assay: Competition assay with Thioflavin T (ThT) for binding to insulin amyloid aggregates, fluorescence 96-well plate; conditions: 0.5 μM ThT, 2 μg per well fibrils, 25 mM sodium phosphate pH 6.0, room temperature
Protocol: Burke M. J. and Rougevie M. A., Cross-β Protein Structures. I. Insulin Fibrils. […] Briefly, lyophilized insulin protein powder dissolved at 10 mg/mL in 50 mM HCl was alternately heated to 95° C. and frozen in dry ice to form amyloid aggregates.
as §1
as §2, with “The plates are read within 5 to 30 minutes in a Millipore Cytofluor 2350 96-well fluorescence plate reader using an excitation filter of 440 nm (20 nm bandpass) and an emission filter of 485 nm (20 nm bandpass).” left out
as §3

[3] = 20 μM ThT, 5 μg/well fibrils, 25 mM sodium phosphate pH 6.0, room temperature, read-out: βA(1-40), IC50

T1 sequence (P05067 672-711 limits assumed): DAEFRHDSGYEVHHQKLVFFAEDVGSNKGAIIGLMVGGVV

| SMILES | IC50 [1, 3] [nM] | IC50 [2] [nM] | IC50 [1] [nM] |
| --- | --- | --- | --- |
| CN(C)c1ccc(/C=C/c2sc3ccccc3[n+]2Cc2ccccc2)cc1 [Example 6, (E)-3-Benzyl-2-[2-(4-dimethylaminophenyl)vinyl]benzothiazol-3-ium bromide] | – | 12 | 110 |
| C=CC[n+]1c(/C=C/c2ccc(N(C)C)cc2)sc2ccccc21 [Example 10, (E)-2-[2-(4-Dimethylaminophenyl)vinyl]-3-allylbenzothiazol-3-ium bromide] | – | 12 | 300 |
| CN(C)c1ccc(/C=C/c2sc3ccc(F)cc3[n+]2Cc2ccccc2)cc1 [Example 15, (E)-2-[2-(4-Dimethylaminophenyl)vinyl]-3-benzyl-5-fluorobenzothiazol-3-ium bromide] | – | 32 | 170 |
| Cc1ccc2c(c1)sc(/C=C/c1ccc(N(C)C)cc1)[n+]2Cc1ccccc1 [Example 18, (E)-3-Benzyl-2-[2-(4-dimethylaminophenyl)vinyl]-6-methylbenzothiazol-3-ium bromide] | – | 50 | 130 |
| CN(C)c1ccc(/C=C/c2sc3cc([N+](=O)[O-])ccc3[n+]2C)cc1 [Example 21, (E)-2-[2-(4-Dimethylaminophenyl)vinyl]-3-methyl-6-nitrobenzothiazol-3-ium toluene-4-sulfonate] | 1000 | 12 | – |
| CCn1c(/C=C/c2ccc(N(C)C)cc2)[s+]c2ccc3ccccc3c21 [Example 22, (E)-2-[2-(4-Dimethylaminophenyl)vinyl]-1-ethylnaphtho[1,2-d]thiazol-3-ium toluene-4-sulfonate] | 210 | 41 | – |
| CN(C)c1ccc(/C=C/c2sc3ccccc3[n+]2Cc2ccc(F)cc2)cc1 [Example 25, (E)-2-[2-(4-Dimethylaminophenyl)vinyl]-3-(4-fluorobenzyl)benzothiazol-3-ium bromide] | – | 42 | 120 |
| CN(C)c1ccc(/C=C/c2sc3ccccc3[n+]2Cc2ccc(-c3ccccc3)cc2)cc1 [Example 26, (E)-3-Biphenyl-4-ylmethyl-2-[2-(4-dimethylaminophenyl)vinyl]benzothiazol-3-ium iodide] | 240 | 34 | – |
| CN(C)c1ccc(/C=C/c2sc3ccccc3[n+]2Cc2ccc3ccccc3c2)cc1 [Example 27, (E)-2-[2-(4-Dimethylaminophenyl)vinyl]-3-naphthalen-2-ylmethylbenzothiazol-3-ium bromide] | – | 13 | 120 |
| CN(C)c1ccc(/C=C/c2sc3ccccc3[n+]2Cc2ccccc2-c2ccccc2)cc1 [Example 28, (E)-3-Biphenyl-2-ylmethyl-2-[2-(4-dimethylaminophenyl)vinyl]benzothiazol-3-ium bromide] | – | 80 | – |
| CN(C)c1ccc(/C=C/c2sc3ccccc3[n+]2C/C=C/c2ccccc2)cc1 [Example 32, (E,E)-2-[2-(4-Dimethylaminophenyl)vinyl]-3-(3-phenylallyl)benzothiazol-3-ium bromide] | – | 80 | – |
| CN(C)c1ccc(/C=C/c2sc3ccccc3[n+]2CCCCOc2ccccc2)cc1 [Example 35, (E)-2-[2-(4-Dimethylaminophenyl)vinyl]-3-(4-phenoxybutyl)benzothiazol-3-ium iodide] | 170 | – | – |
| CN(C)c1ccc(/C=C/c2sc3ccccc3[n+]2CCCCCc2ccccc2)cc1 [Example 36, (E)-2-[2-(4-Dimethylaminophenyl)vinyl]-3-(5-phenylpentyl)benzothiazol-3-ium iodide] | 170 | – | – |
| CN(C)c1ccc(/N=N/c2nc3c(ccc4ccccc43)s2)c2ccccc12 [Example 52, Dimethyl[4-(naphtho[1,2-d]thiazol-2-ylazo)naphthalen-1-yl]amine] | – | 16000 | – |

Further lines, with some results ahead:

| IC50 [1, 3] [nM] | IC50 [2] [nM] | SMILES | IC50 [1] [nM] |
| --- | --- | --- | --- |
| > 100000 | 100000 | CN(C)c1ccc(/C=C/c2nc3cc(Cl)ccc3s2)cc1 [Example 1, (E)-{4-[2-(5-Chlorobenzothiazol-2-yl)vinyl]phenyl}dimethylamine] | – |
| > 100000 | – | CN(C)c1ccc(/C=C/c2nc3ccccc3s2)cc1 [Example 2, (E)-{4-[2-(Benzothiazol-2-yl)vinyl]phenyl}dimethylamine] | – |
| – | 900 | Cc1ccc2sc(/C=C/c3ccc(N(C)C)cc3)nc2c1 [Example 3, (E)-Dimethyl-{4-[2-(5-methylbenzothiazol-2-yl)vinyl]phenyl}amine] | – |
| – | 1500 | Cc1ccc2nc(/C=C/c3ccc(N(C)C)cc3)sc2c1 [Example 4, (E)-Dimethyl-{4-[2-(6-methylbenzothiazol-2-yl)vinyl]phenyl}amine] | – |
| > 100000 | – | CN(C)c1ccc(/C=C/c2nc3ccc(N(C)C)cc3s2)cc1 [Example 5, (E)-{2-[2-(4-Dimethylaminophenyl)vinyl]benzothiazol-6-yl}dimethylamine] | – |
| 400 | 6 | CC[n+]1c(/C=C/c2ccc(N(C)C)cc2)sc2ccccc21 [Example 7, (E)-2-[2-(4-Dimethylaminophenyl)vinyl]-3-ethylbenzothiazol-3-ium iodide] | – |
| 210 | 53 | CN(C)c1ccc(/C=C/c2[s+]c3ccc4ccccc4c3n2C)cc1 [Example 8, (E)-2-[2-(4-Dimethylaminophenyl)vinyl]-1-methylnaphtho[1,2-d]thiazol-3-ium iodide] | – |
| 1000 | – | CN(C)c1ccc(/C=C/c2sc3ccccc3[n+]2C)cc1 [Example 9, (E)-2-[2-(4-Dimethylaminophenyl)vinyl]-3-methylbenzothiazol-3-ium iodide] | – |
| 160 | 27 | CCCC[n+]1c(/C=C/c2ccc(N(C)C)cc2)sc2ccccc21 [Example 11, (E)-2-[2-(4-Dimethylaminophenyl)vinyl]-3-butylbenzothiazol-3-ium iodide] | – |
| 93 | – | CCCCCCC[n+]1c(/C=C/c2ccc(N(C)C)cc2)sc2ccccc21 [Example 12, (E)-2-[2-(4-Dimethylaminophenyl)vinyl]-3-heptylbenzothiazol-3-ium iodide] | – |
| 430 | 5.2 | CN(C)c1ccc(/C=C/c2sc3ccc(Cl)cc3[n+]2C)cc1 [Example 13, (E)-5-Chloro-2-[2-(4-dimethylaminophenyl)vinyl]-3-methylbenzothiazol-3-ium iodide] | – |
| 1000 | – | CN(C)c1ccc(/C=C/c2sc3ccc(F)cc3[n+]2C)cc1 [Example 14, (E)-2-[2-(4-Dimethylaminophenyl)vinyl]-5-fluoro-3-methylbenzothiazol-3-ium iodide] | – |
| 400 | 7.5 | Cc1ccc2sc(/C=C/c3ccc(N(C)C)cc3)[n+](C)c2c1 [Example 16, (E)-2-[2-(4-Dimethylaminophenyl)vinyl]-3,5-dimethylbenzothiazol-3-ium iodide] | – |
| 180 | 6 | Cc1ccc2c(c1)sc(/C=C/c1ccc(N(C)C)cc1)[n+]2C [Example 17, (E)-2-[2-(4-Dimethylaminophenyl)vinyl]-3,6-dimethylbenzothiazol-3-ium iodide] | – |
| 300 | – | COc1ccc2c(c1)sc(/C=C/c1ccc(N(C)C)cc1)[n+]2C [Example 19, (E)-2-[2-(4-Dimethylaminophenyl)vinyl]-6-methoxy-3-methylbenzothiazol-3-ium iodide] | – |
| 140 | 40 | CCCCCCC[n+]1c(/C=C/c2ccc(N(C)C)cc2)sc2cc(OC)ccc21 [Example 20, (E)-2-[2-(4-Dimethylaminophenyl)vinyl]-3-heptyl-6-methoxybenzothiazol-3-ium iodide] | – |
| 120 | 120 | CN(C)c1ccc(/C=C/c2sc3cc4ccccc4cc3[n+]2C)cc1 [Example 23, (E)-2-[2-(4-Dimethylaminophenyl)vinyl]-3-methylnaphtho[2,3-d]thiazol-3-ium iodide] | – |
| 210 | 41 | CN(C)c1ccc(/C=C/c2sc3c4ccccc4ccc3[n+]2C)cc1 [Example 24, (E)-2-[2-(4-Dimethylaminophenyl)vinyl]-3-methylnaphtho[2,1-d]thiazol-3-ium iodide] | – |
| 22000 | – | CN(C)c1ccc(/N=N/c2nc3ccccc3s2)cc1 [Example 47, [4-(Dimethylamino)phenylazo]benzothiazole] | – |
